From patent US20140301947A1, “METHODS TO PREDICT BINDING AFFINITY OF TSPO IMAGING AGENTS TO TSPO” (IMPERIAL INNOVATIONS LIMITED, priority 2011, published 2014)
Values joined by “and” are separate entries in the source; they are usually repeats but may differ in a detail not shown here. Equal entries are not always repeated. Where two headings read alike, the source gives them in different places.

Experiments:
TSPO [1] = target: T1, TSPO (Homo sapiens, UniProt P30536); design: from tissue; host or cells: human brain (membrane preparation, by the cited method); conditions: background, reference (5); read-out: Ki values for LABs; cited from earlier work
Target sequence in this assay (P30536 2-169): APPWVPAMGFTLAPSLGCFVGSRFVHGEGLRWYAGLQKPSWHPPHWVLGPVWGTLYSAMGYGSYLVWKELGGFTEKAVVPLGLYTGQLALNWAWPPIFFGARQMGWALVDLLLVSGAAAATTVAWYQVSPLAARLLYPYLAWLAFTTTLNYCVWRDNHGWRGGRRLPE

TSPO [2] = target: T2, TSPO (Homo sapiens, UniProt P30536, T147A); design: from tissue; host or cells: human brain (membrane preparation, by the cited method); conditions: background, reference (5); read-out: Ki values for HABs; cited from earlier work
TSPO [3] = target: T1, TSPO; assay: Competition binding with [3H]PK11195 in human brain (method of J Nucl Med 2011;52:24-32); design: from tissue; host or cells: human brain (membrane preparation, by the cited method)
Excerpt: (§1) Thus, for example, the binding affinity of the compound may be determined in tissue derived from a HAB and in tissue derived from a LAB. An appropriate method may comprise the following steps: • obtain samples from human volunteers of tissue which contains TSPO (for example brain (for example for archive samples) or platelets (for example from blood)).
(§2) In more detail, as an example, a 48 well plate may be used, for example with 8-12 different concentrations of experimental drug for each experiment (be it the radiolabelled drug for saturation studies or the un-radiolabelled drug for competition studies). Concentrations may range from around 0.1 nM, increasing in roughly half logs (ie 0.1 nM, 0.3 nM, 1 nM, 3 nM etc) up to around 10,000 nM. 3-4 wells may be used for each concentration and the average taken to increase the precision around the estimate for each data point. The amount of tissue material required depends on how much TSPO is in the chosen tissue. For brain ˜100 micrograms of protein in each well (500 microlitres) may typically be used, giving a protein concentration of ˜200 micrograms/ml. Similar amounts may be used for platelets. For a tissue with very high TSPO levels (eg adrenal gland) a lot less protein would be needed.
Target sequence in this assay (P30536 2-169): as above

TSPO [4] = target: T2, TSPO; assay: as above; design: from tissue; host or cells: human brain (membrane preparation, by the cited method); conditions: human brain
Excerpt: as §1, §2

TSPO [5] = target: T1, TSPO; assay: Competition binding assay, unlabelled PBR28 displacing [3H]PK11195 in human platelet membranes; design: from tissue; conditions: platelets, mean±SEM
Procedure: (§3) The study protocol, volunteer information and informed consent forms were approved by the local Research Ethics Committee. Forty-one healthy volunteers (29 male, 12 female, mean age 36.3±1.4 years) were recruited. […] Venous blood (50 ml) was drawn into EDTA-containing tubes, and separated into a lymphocyte-rich bottom layer (for genetic analysis) and platelet-rich top layer by centrifugation (180×g, 15 min, 4° C.). The platelet-rich layer (for binding assays) was re-centrifuged (1800×g, 15 min, 4° C.) to produce a platelet-containing pellet. Platelet membranes were prepared as previously described (5).
(§4) Binding data were analysed using GraphPad Prism 5.0. Single site and two site competition models were fitted using the least squares algorithm and model selection was compared using an F-test. The null hypothesis, that the data fitted a single site model, was rejected if the p value was less than 0.05. […] MABs were defined as subjects with two binding sites. Data are expressed as the mean±standard error of the mean (SEM).
Target sequence in this assay (P30536 2-169): as above

TSPO [6] = target: T2, TSPO; assay: as above; design: from tissue; conditions: platelets, mean±SEM
Procedure: as §3, §4

TSPO [7] = assay: Competition radioligand binding assay with [3H]PK11195 and unlabelled GE1 in HABs and LABs; design: species or system human; conditions: LAB mean Ki / HAB mean Ki
Procedure: (§5) FIG. 6: Competition radioligand binding assay with [3H]
(§6) Binding assays were performed as for the other compounds, as described above. The compound concentrations used were 10000 nM, 3000 nM. 1000 nM, 300 nM, 100 nM. 30 nM, 10 nM, 3 nM, 1 nM, 0.3 nM and 0.03 nM. 6 HABS and 6 LABs were used.

TSPO [8] = target: T1, TSPO; assay: as above; design: from tissue; host or cells: human brain (membrane preparation, by the cited method)
Procedure: as §5, §6
Target sequence in this assay (P30536 2-169): as above

TSPO [9] = target: T2, TSPO; assay: as above; design: from tissue; host or cells: human brain (membrane preparation, by the cited method)
Procedure: as §5, §6

TSPO [10] = assay: Competition binding with [3H]PK11195 in human brain (method of J Nucl Med 2011;52:24-32); conditions: for ratio of specific signal, LAB: LAB set to 1; for LAB/HAB: ratio of Ki LAB to Ki HAB; for ratio of specific signal, HAB / ratio of specific signal, MAB: relative to LAB = 1
Excerpt: as §1, §2

[11] = tested on: sodium channels, calcium channels, phosphodiesterases or NF-κB; conditions: cited from earlier work
TSPO [12] = target: T1, TSPO; conditions: high affinity interaction (<100 nM) excluded; not formally measured; cited from earlier work
Target sequence in this assay (P30536 whole entry): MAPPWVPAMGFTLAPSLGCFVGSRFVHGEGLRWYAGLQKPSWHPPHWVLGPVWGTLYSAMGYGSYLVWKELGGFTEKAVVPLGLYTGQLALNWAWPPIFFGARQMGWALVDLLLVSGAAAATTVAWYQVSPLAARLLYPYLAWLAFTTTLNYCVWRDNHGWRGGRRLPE

TSPO [13] = target: T3, TSPO (Rattus norvegicus, UniProt P16257); conditions: rat heart; cited from earlier work
T3 construct: 200 nM in the rat heart (Gulyas et al. 2005); host or cells: rat heart

TSPO [14] = assay: Competition binding assay with [3H]PK11195 and unlabelled vinpocetine in human brain membranes; conditions: average of HAB and LAB means; read-out: mean Ki value of HABs and LABs
Procedure: (§7) Tissue was obtained from the UK Multiple Sclerosis (MS) Tissue Bank at Imperial College. All tissue blocks obtained included only “normal appearing” tissue, without immunohistochemical evidence of demyelination or significant inflammatory infiltrate. The tissue was stored at −80° C. until use. Tissue blocks from 15 donors (5 each from HAB, MAB and LAB donors) were used. The binding affinity classification for each tissue block had been established previously using PBR28 (Owen et al. 2010).
(§8) Tissue blocks were homogenised in 10 times weight for volume (w/v) buffer ([…], 5 mM Tris base, 1 mM MgCl2, pH 7.4, 4° C.). […]
(§9) Following incubation, assays were terminated via filtration through Whatman GF/B filters, followed by 3×1 ml washes with ice-cold wash buffer (50 mM Tris Base, 1.4 mM MgCl2, pH 7.4, 4° C.). […] Scintillation fluid (4 ml/vial, Perkin Elmer Ultima Gold MV) was added and vials counted on a Perkin Elmer Tricarb 2900 liquid scintillation counter. […] Ki (nM) values were determined using GraphPad Prism 5.0 software (GraphPad Software Inc, USA).
(§10) Protein concentrations (μg protein/ml) were determined using the Bicinchoninic acid assay (BCA Kit, Sigma-Aldrich, UK) and absorption read at 562 nm.
(§11) Data were analysed using the iterative non-linear regression curve fitting software supplied with GraphPad Prism 5.0. […] Data are expressed as the mean (standard error of the mean). […]

TSPO [15] = target: T2, TSPO; assay: as above; design: from tissue; host or cells: human brain (membrane preparation, by the cited method); conditions: A/A subjects, high affinity binder, human brain, mean (SEM); read-out: Vinpocetine Ki, HAB
Procedure: as §7, §8, §9, §10, §11

TSPO [16] = target: T1, TSPO; assay: as above; design: Ki MAB; Vinpocetine Ki, MAB; conditions: A/T subjects, mixed affinity binder, human brain, mean (SEM), read-out: Vinpocetine Ki, MAB
Procedure: as §7, §8, §9, §10, §11

TSPO [17] = assay: Autoradiography with [18F]FEPPA on slides previously characterised with [3H]PBR28; format: binding; conditions: LAB slide versus HAB and MAB slides
Excerpt: FIG. 4: Autoradiograhpy (above) with [^18F]FEPPA (structure below). The sample slides in the figure have been previously characterised with [^3H]PBR28 and are all from HABs and MABs, but for the slide second from the left which is a LAB.

TSPO [18] = target: T1, TSPO; assay: Competition binding with [3H]PK11195 in human brain (method of J Nucl Med 2011;52:24-32); design: Ki MAB; Vinpocetine Ki, MAB; conditions: mixed affinity binders, single value, human brain; read-out: Ki MAB
Excerpt: as §1, §2

[19] = low affinity binders, human brain, read-out: Ki LAB
[20] = mixed affinity binders, two values given, human brain, read-out: Ki MAB, second (low affinity) value
[21] = high affinity binders, nM, read-out: Ki HAB
[22] = mixed affinity binders, two values given, read-out: Ki MAB, first (high affinity) value
[23] = grouping of ligands into 3 distinct affinities, read-out: affinity for the "Low Affinity receptor"

T2 sequence (P30536 2-169 T147A): as the sequence (P30536 2-169) above, with T146A counted along it

COc1ccccc1CN(C(C)=O)c1cnccc1Oc1ccccc1 [PBR28]
Ki (TSPO [1]): 200 nM
Ki (TSPO [2]): 4 nM
Ki (TSPO [3]; [19]): 188 ± 7 nM
Ki (TSPO [3]; [20]): 313 nM
Ki (TSPO [4]; [21]): 3.4 ± 0.2 nM
Ki (TSPO [4]; [22]): 4 nM
Ki (TSPO [5]; LABs (2/41 subjects), read-out: Ki, single class of low affinity sites): 187 ± 19.7 nM
Ki (TSPO [5]; MABs (12/41 subjects), read-out: Ki, two-site model, low affinity site): 297 ± 43.3 nM
Ki (TSPO [6]; HABs (27/41 subjects), read-out: Ki, single class of high affinity sites): 2.17 ± 0.17 nM
Ki (TSPO [6]; MABs (12/41 subjects), read-out: Ki, two-site model, high affinity site): 2.23 ± 0.31 nM

CCN(CC)C(=O)C1CCCC2C1c1c(OC)cccc1N2CCF (stereo not shown) [GE1]
Affinity shift (TSPO [7]): 11.8 fold
Ki (TSPO [3]; [19]): 145 ± 22.1 nM
Ki (TSPO [4]; [21]): 12.3 ± 2.1 nM
Ki (TSPO [8]; 6 LABs, racemate, read-out: Ki, mean of LABs): 145 nM
IC50 (TSPO [8]; individual LAB subjects, 5 nM [3H]PK11195): 103 nM and 108 nM and 162 nM and 135 nM and 276 nM and 170 nM
Ki (TSPO [8]; individual LAB subjects, read-out: Ki): 87.7 nM and 91.9 nM and 138 nM and 115 nM and 235 nM and 145 nM
Ki (TSPO [9]; 6 HABs, racemate, read-out: Ki, mean of HABs): 12.3 nM
IC50 (TSPO [9]; individual HAB subjects, 5 nM [3H]PK11195): 4.51 nM and 16.1 nM and 10.7 nM and 14.9 nM and 21.2 nM and 19.3 nM
Ki (TSPO [9]; individual HAB subjects, read-out: Ki): 3.85 nM and 13.8 nM and 9.12 nM and 12.7 nM and 18.1 nM and 16.5 nM
ratio of specific signal, LAB (TSPO [10]): 1
LAB/HAB (TSPO [10]): 11.8
ratio of specific signal, HAB (TSPO [10]): 11.8
ratio of specific signal, MAB (TSPO [10]): 6.4

CCOC(=O)C1=C[C@]2(CC)CCCN3CCc4c(n1c1ccccc41)[C@@H]32 [Vinpocetine, ethyl apovincaminate]
concentrations required for these effects ([11]; phosphodiesterase inhibition, blockade of sodium and calcium channels): 1 to 44 µM
affinity for these targets (Ki) ([11]; sodium channels, calcium channels, phosphodiesterases or NF-κB): Ki in the uM range
binding affinity for the TSPO in humans (TSPO [12]): ≥ 100 nM
reported binding affinity (TSPO [13]): 200 nM
Ki (TSPO [14]): 443 nM
Ki (TSPO [15]): 777 nM
Ki (TSPO [16]; listed as vinpocetine): 332 nM
Ki (TSPO [16]): 332 nM

COc1ccc(OC)c(CN(C(=O)CF)c2ccccc2Oc2ccccc2)c1 [PBR06]
Ki (TSPO [3]; [19]): 149 ± 46.6 nM
Ki (TSPO [3]; [20]): 176 nM
Ki (TSPO [4]; [21]): 8.6 ± 2 nM
Ki (TSPO [4]; [22]): 13.4 nM
ratio of specific signal, LAB (TSPO [10]): 1
LAB/HAB (TSPO [10]): 17
ratio of specific signal, HAB (TSPO [10]): 17.3
ratio of specific signal, MAB (TSPO [10]): 9.2

CC(=O)N(Cc1ccccc1O[11CH3])c1cnccc1Oc1ccccc1 [PBR28]
ratio of specific signal, LAB (TSPO [10]): 1
LAB/HAB (TSPO [10]): 55
ratio of specific signal, HAB (TSPO [10]): 55.3
ratio of specific signal, MAB (TSPO [10]): 28.2

CC(=O)N(Cc1ccccc1OCCF)c1cnccc1Oc1ccccc1 [FEPPA]
autoradiography signal (TSPO [17]): lack of signal for the LAB

COc1ccc(OC)c(CN(C(C)=O)c2cc(F)ccc2Oc2ccccc2)c1 [DAA1106]
Ki (TSPO [3]; [19]): 13.1 ± 1.3 nM
Ki (TSPO [4]; [21]): 2.8 ± 0.3 nM
Ki (TSPO [18]): 4.8 ± 0.4 nM
ratio of specific signal, LAB (TSPO [10]): 1
LAB/HAB (TSPO [10]): 4.7
ratio of specific signal, HAB (TSPO [10]): 4.7
ratio of specific signal, MAB (TSPO [10]): 2.9

CCN(CC)C(=O)Cc1c(-c2ccc(OCCCF)cc2)nc2ccc(Cl)cn12 [PBR111]
Ki (TSPO [1]): 62 nM
Ki (TSPO [2]): 16 nM
Ki (TSPO [3]; [23]): ~60 nM
Ki (TSPO [3]; [19]): 61.8 ± 10.7 nM
Ki (TSPO [4]; [21]): 15.6 ± 3.7 nM
Ki (TSPO [18]): 30.3 ± 4.1 nM
ratio of specific signal, LAB (TSPO [10]): 1
LAB/HAB (TSPO [10]): 4
ratio of specific signal, HAB (TSPO [10]): 4.0
ratio of specific signal, MAB (TSPO [10]): 2.5

CCC(C)N(C)C(=O)c1cc2ccccc2c(-c2ccccc2Cl)n1 (stereo not shown) [PK11195, 1-(2-Chlorophenyl)-N-methyl-N-(1-methylpropyl)-3-isoquinolinecarboxamide]
difference in binding affinity to Ala147TSPO and Thr147TSPO (TSPO [10]; assay as in Owen et al (2011) J Nucl Med 52, 24-32): No significant difference in binding affinity has been detected

CCN(Cc1ccccc1)C(=O)Cn1c(=O)n(C)c2cnc(-c3ccccc3)nc21 [Emapunil]
Ki (TSPO [3]; [23]): < 31 nM
Ki (TSPO [3]; [19]): 30.3 ± 8.7 nM
Ki (TSPO [4]; [21]): 2.4 ± 0.67 nM
Ki (TSPO [18]): 10.5 ± 0.99 nM
LAB/HAB (TSPO [10]): 12.6
